Experimental data published in ChEMBL document CHEMBL6083260, “Dizocilpine derivatives as neuroprotective NMDA receptor antagonists without psychomimetic side effects” (Eur J Med Chem, 2024).
Calls of active or inactive are those of the source. The rule behind the calls is not given here.

Columns and labels:
[1] = Cytotoxicity against CHO-K1 cells assessed as reduction in cell viability incubated for 24 hrs by MTT assay; assay type: toxicity, cell-based; conditions: Chinese hamster (Cricetulus griseus)
[2] = biological target: T1, Glutamate NMDA receptor; GRIN1/GRIN2B (Homo sapiens, UniProt Q05586+Q13224); assay: Antagonist activity at human GluN1/GluN2B receptor expressed in HEK293 cells assessed as inhibition of L-glutamate induced response at 3 uM at -60 mV membrane potential by patch clamp electrophysiology analysis; assay type: cell-based
[3] = biological target: T2, Glutamate NMDA receptor; GRIN1/GRIN2A (Homo sapiens, UniProt Q05586+Q12879); assay: Antagonist activity at human GluN1/GluN2A receptor expressed in HEK293 cells assessed as inhibition of L-glutamate induced response at 3 uM at -60 mV membrane potential by patch clamp electrophysiology analysis; assay type: cell-based
[4] = biological target: T2, Glutamate NMDA receptor; GRIN1/GRIN2A; assay: Antagonist activity at human GluN1/GluN2A receptor expressed in HEK293 cells assessed as inhibition of L-glutamate induced response at -40 mV membrane potential by patch clamp electrophysiology analysis; assay type: cell-based
[5] = biological target: T2, Glutamate NMDA receptor; GRIN1/GRIN2A; assay: Antagonist activity at human GluN1/GluN2A receptor expressed in HEK293 cells assessed as inhibition of […] response at 1 uM onset measured by patch clamp electrophysiology analysis; assay type: cell-based; conditions: filed as antagonist
[6] = biological target: T2, Glutamate NMDA receptor; GRIN1/GRIN2A; assay: Antagonist activity at human GluN1/GluN2A receptor expressed in HEK293 cells assessed as inhibition of offset time constant at -60 mV membrane potential by patch clamp electrophysiology analysis relative to control; assay type: cell-based; conditions: filed as antagonist, dose 1.0 µM
[7] = Toxicity in male Wistar rat assessed as effect on pre-pulse inhibition of acoustic startle response induced deficit at 1 to 10 mg/kg, ip by prepulse inhibition test; assay type: organism-based; conditions: in vivo, dose 1-10 mg/kg
[8] = biological target: T2, Glutamate NMDA receptor; GRIN1/GRIN2A; assay: (§1) Antagonist activity at human GluN1/GluN2A receptor expressed in HEK293 cells assessed as inhibition of L-glutamate/glycine-induced steady state conditions of the current response at holding - 60 mV potential by measuring onset time constant at 1 to 100 uM incubated for 2 min followed by compound washout measured by patch clamp electrophysiology analysis; assay type: cell-based; conditions: filed as antagonist, dose 1-100 µM
[9] = biological target: T1, Glutamate NMDA receptor; GRIN1/GRIN2B; assay: as §1, with “GluN1/GluN2B” for “GluN1/GluN2A”; assay type: cell-based; conditions: filed as antagonist, dose 1-100 µM
[10] = Toxicity in male Wistar rat assessed as loss of activity at 20 mg/kg, ip; assay type: organism-based; conditions: in vivo
[11] = Toxicity in male Wistar rat assessed as decrease respiration at 20 mg/kg, ip; assay type: organism-based; conditions: in vivo
[12] = biological target: T1, Glutamate NMDA receptor; GRIN1/GRIN2B; assay: Antagonist activity at human GluN1/GluN2B receptor expressed in HEK293 cells assessed as inhibition of L-glutamate induced response at -40 mV membrane potential by patch clamp electrophysiology analysis; assay type: cell-based
Rattus norvegicus = assay: In vivo neuroprotective activity in NMDA-induced hippocampal lesion male Wistar rat model assessed as decrease in damage score at 30 uM; assay type: functional, organism-based
[13] = Toxicity in male Wistar rat assessed as locomotion at 1 to 10 mg/kg, ip incubated for 15 min by open field test; assay type: organism-based; conditions: in vivo, 0.25 h, dose 1-10 mg/kg
[14] = Toxicity in male Wistar rat assessed as no observed adverse effect level (NOAEL) at 10 mg/kg, ip; assay type: organism-based; conditions: in vivo
[15] = biological target: T1, Glutamate NMDA receptor; GRIN1/GRIN2B; assay: as §1, with “GluN1/GluN2B” for “GluN1/GluN2A”, “offset” for “onset”; assay type: cell-based; conditions: filed as antagonist, dose 1-100 µM
[16] = biological target: T2, Glutamate NMDA receptor; GRIN1/GRIN2A; assay: as §1, with “offset” for “onset”; assay type: cell-based; conditions: filed as antagonist, dose 1-100 µM
[17] = Inhibition of human recombinant AChE measured by Ellman's method
[18] = Toxicity in male Wistar rat assessed as hyperlocomotion at 0.2 mg/kg, ip incubated for 10 min by open field test; assay type: organism-based; conditions: in vivo
[19] = Toxicity in male Wistar rat assessed as effect on pre-pulse inhibition of acoustic startle response induced deficit at 0.3 mg/kg, ip mg/kg by prepulse inhibition test; assay type: organism-based; conditions: in vivo
[20] = biological target: T1, Glutamate NMDA receptor; GRIN1/GRIN2B; assay: Antagonist activity at human GluN1/GluN2B receptor expressed in HEK293 cells assessed as inhibition of L-glutamate induced response at -60 mV membrane potential by patch clamp electrophysiology analysis; assay type: cell-based
[21] = biological target: T2, Glutamate NMDA receptor; GRIN1/GRIN2A; assay: Antagonist activity at human GluN1/GluN2A receptor expressed in HEK293 cells assessed as inhibition of L-glutamate induced response at -60 mV membrane potential by patch clamp electrophysiology analysis; assay type: cell-based

Row | SMILES | IC50 at 24 h [1] | inhibition ([2]; filed as antagonist) | inhibition [3] | inhibition ([3]; filed as antagonist) | other results
1 | C1=Cc2ccccc2C(N2CCCCC2)c2ccccc21 | 381 µM | 58.4% | 29.9% | – | –
2 | CNC1c2ccccc2C=Cc2ccccc21 | 299 µM | 68.9% | – | 54.3% | –
3 | CC(C)NC1c2ccccc2C=Cc2ccccc21 | 251 µM | 76% | – | 75.6% | –
4 | CN1CCN(C2c3ccccc3CCc3ccccc32)CC1 | 122 µM | – | 9.7% | – | inhibition [2]: 9.49%
5 | COCCNC1c2ccccc2CCc2ccccc21 | 385 µM | 66.6% | 34.9% | – | –
6 | CC(C)CNC1c2ccccc2CCc2ccccc21 | 92.4 µM | 91.6% | – | 76.8% | –
7 | CCCCNC1c2ccccc2C=Cc2ccccc21 | 101 µM | 79.2% | – | 81.1% | –
8 | CCNC1c2ccccc2C=Cc2ccccc21 | 498 µM | 59.9% | 39.9% | – | –
9 | Cl.OCCNC1c2ccccc2CCc2ccccc21 | 720 µM | 49.7% | – | 48% | IC50 [4]: 276 µM; TIME [5]: 0.000112 h; inhibition [6]: 99%; Activity [7]: Toxic; Activity [8]: Active; Activity [9]: Active; Activity [10]: Toxic; Activity [11]: Toxic; IC50 [12]: 215 µM; Activity (Rattus norvegicus): Active; Activity [13]: Non-toxic; Activity [14]: Non-toxic
10 | OCCNC1c2ccccc2C=Cc2ccccc21 | 333 µM | 48.8% | 38.2% | – | –
11 | CC(C)CNC1c2ccccc2C=Cc2ccccc21.Cl | 102 µM | 91.8% | – | 93.2% | Activity [15]: Active; Compound Exhibited Slower Time Constant Offset Than 3L; IC50 [4]: 22.4 µM; inhibition [6]: 99%; Activity [7]: Toxic; Activity [8]: Active; Activity [16]: Active; Compound Exhibited Slower Time Constant Offset Than 3L; Activity [9]: Active; Activity [10]: Toxic; Activity [11]: Toxic; IC50 [12]: 11.7 µM; Activity [13]: Non-toxic; Activity [14]: Non-toxic
12 | c1ccc2c(c1)CCc1ccccc1C2N1CCCC1 | 97.7 µM | 62.1% | – | 49.8% | –
13 | c1ccc2c(c1)CCc1ccccc1C2N1CCCCC1 | 73.8 µM | – | 5.4% | – | inhibition [2]: 5.2%
14 | C1=Cc2ccccc2C(NC2CCCCC2)c2ccccc21 | 81.3 µM | 92.4% | – | 92.1% | IC50 [17]: 8.5 µM
15 | CCN1CCN(C2c3ccccc3CCc3ccccc32)CC1 | 147 µM | – | 7.64% | – | inhibition [2]: 5.22%
16 | COCCNC1c2ccccc2C=Cc2ccccc21 | 390 µM | 60% | 35.6% | – | –
17 | CC(C)NC1c2ccccc2CCc2ccccc21 | 263 µM | 76.9% | – | 52.2% | –
18 | c1ccc2c(c1)CCc1ccccc1C2NC1CC1 | 177 µM | 53.6% | – | 40.1% | –
19 | CNC1c2ccccc2CCc2ccccc21 | 410 µM | 71% | – | 82.3% | –
20 | C1=Cc2ccccc2C(N2CCOCC2)c2ccccc21 | 165 µM | 57.6% | 31.9% | – | –
21 | c1ccc2c(c1)CCc1ccccc1C2N1CCOCC1 | 95.2 µM | – | 6.78% | – | inhibition [2]: 3.43%
22 | C[C@]12N[C@H](Cc3ccccc31)c1ccccc12 [DIZOCILPINE] | – | – | – | – | Activity [18]: Toxic; Activity [19]: Toxic
23 | c1ccc2c(c1)CCc1ccccc1C2NC1CCCCC1 | 85 µM | 86% | – | 79.4% | IC50 [17]: 14.4 µM
24 | C1=Cc2ccccc2C(NC2CC2)c2ccccc21 | 260 µM | 57.2% | – | 45% | –
25 | C1=Cc2ccccc2C(N2CCCC2)c2ccccc21 | > 900 µM | 85.5% | – | 48.6% | –
26 | CCNC1c2ccccc2CCc2ccccc21 | 364 µM | 51.8% | 34% | – | –
27 | CCN(CC)C1c2ccccc2CCc2ccccc21 | 86.4 µM | 75% | – | 68.4% | –
28 | CNC1(c2ccccc2Cl)CCCCC1=O (stereo not drawn) [KETAMINE] | – | – | – | – | IC50 [20]: 510 nM; IC50 [4]: 53.3 µM; IC50 [12]: 15.2 µM; IC50 [21]: 500 nM
29 | CCCCNC1c2ccccc2CCc2ccccc21 | 128 µM | 85.8% | – | 76.4% | –
